# Reference: patent US10875875B2, “Propionic acid derivatives and methods of use thereof” (Aviara Pharmaceuticals, Inc., priority 2017, dated 2020)
# pIC50: −log10 of the molar value.
# Target: α4β1 (Homo sapiens, UniProt P05556+P13612)
# Assay: α4β1 integrin inhibition, IC50
# Type: binding
# Details: read-out: α4β1 IC50
# Sequence of α4β1 (P13612 34-1032): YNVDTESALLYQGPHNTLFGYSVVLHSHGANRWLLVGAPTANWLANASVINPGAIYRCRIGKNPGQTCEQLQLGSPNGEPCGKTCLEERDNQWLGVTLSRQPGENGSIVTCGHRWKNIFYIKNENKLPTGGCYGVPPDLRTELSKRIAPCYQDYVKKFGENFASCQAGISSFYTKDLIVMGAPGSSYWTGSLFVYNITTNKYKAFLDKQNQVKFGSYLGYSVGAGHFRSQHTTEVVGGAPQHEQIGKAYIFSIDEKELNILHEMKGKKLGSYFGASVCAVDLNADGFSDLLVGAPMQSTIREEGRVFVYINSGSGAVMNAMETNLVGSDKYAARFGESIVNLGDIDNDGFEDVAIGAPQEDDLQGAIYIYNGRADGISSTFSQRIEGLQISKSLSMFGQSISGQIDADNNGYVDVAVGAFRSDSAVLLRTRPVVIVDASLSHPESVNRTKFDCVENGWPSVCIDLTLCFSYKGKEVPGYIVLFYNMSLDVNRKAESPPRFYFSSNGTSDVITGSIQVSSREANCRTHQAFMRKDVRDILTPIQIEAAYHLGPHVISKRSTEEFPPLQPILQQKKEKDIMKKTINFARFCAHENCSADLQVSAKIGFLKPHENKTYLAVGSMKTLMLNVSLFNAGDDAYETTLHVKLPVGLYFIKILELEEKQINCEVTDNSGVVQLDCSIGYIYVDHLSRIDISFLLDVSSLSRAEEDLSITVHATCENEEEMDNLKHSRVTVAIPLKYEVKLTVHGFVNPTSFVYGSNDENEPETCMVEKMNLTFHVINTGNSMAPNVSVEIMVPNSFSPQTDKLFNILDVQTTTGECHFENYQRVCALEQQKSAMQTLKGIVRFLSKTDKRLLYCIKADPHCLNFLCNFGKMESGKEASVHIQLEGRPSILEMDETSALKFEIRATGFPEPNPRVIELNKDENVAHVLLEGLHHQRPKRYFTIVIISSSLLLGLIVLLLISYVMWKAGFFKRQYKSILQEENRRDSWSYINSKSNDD
# Sequence of α4β1 (P05556 21-798): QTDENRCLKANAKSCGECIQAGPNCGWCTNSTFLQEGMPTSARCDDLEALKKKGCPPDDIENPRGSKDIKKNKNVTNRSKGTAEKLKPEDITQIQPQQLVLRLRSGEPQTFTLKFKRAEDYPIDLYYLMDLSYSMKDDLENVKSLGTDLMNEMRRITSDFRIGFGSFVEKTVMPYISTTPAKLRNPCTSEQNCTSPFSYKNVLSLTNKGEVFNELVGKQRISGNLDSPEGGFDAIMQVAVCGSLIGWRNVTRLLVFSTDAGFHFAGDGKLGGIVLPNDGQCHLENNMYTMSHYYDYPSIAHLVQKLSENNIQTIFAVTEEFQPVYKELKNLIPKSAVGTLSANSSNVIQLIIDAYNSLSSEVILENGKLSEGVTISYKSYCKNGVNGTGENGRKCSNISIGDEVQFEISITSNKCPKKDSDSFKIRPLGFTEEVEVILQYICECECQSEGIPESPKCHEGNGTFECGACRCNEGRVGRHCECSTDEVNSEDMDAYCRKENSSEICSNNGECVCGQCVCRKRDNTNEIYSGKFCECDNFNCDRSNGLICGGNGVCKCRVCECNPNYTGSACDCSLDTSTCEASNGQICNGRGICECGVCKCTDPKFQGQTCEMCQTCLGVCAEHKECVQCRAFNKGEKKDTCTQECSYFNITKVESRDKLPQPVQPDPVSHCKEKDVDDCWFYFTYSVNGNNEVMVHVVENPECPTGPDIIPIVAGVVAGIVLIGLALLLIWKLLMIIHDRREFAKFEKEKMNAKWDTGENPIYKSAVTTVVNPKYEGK
row,pIC50,Structure (SMILES)
1,> 7.70,"Cc1cn(C)c(=O)c(NC(=O)N[C@@H](CC(=O)O)c2cccc(-c3c(F)cccc3F)c2)c1O [1-464, sodium (S)-3-(2′,6′-difluorobiphenyl-3-yl)-3-(3-(1,5-dimethyl-4-oxido-2-oxo-1,2-di hydropyridin-3-yl)ureido)propanoate]"
2,> 7.70,"Cc1cn(C)c(=O)c(NC(=O)N[C@@H](CC(=O)O)c2cccc(-c3cccc(F)c3)c2)c1O [1-465, sodium (S)-3-(3-(1,5-dimethyl-4-oxido-2-oxo-1,2-dihydropyridin-3-yl)ureido)-3-(3′-fluorobiphenyl-3-yl)propanoate]"
3,> 7.70,"Cc1cn(C)c(=O)c(NC(=O)N[C@@H](CC(=O)O)c2cccc(-c3ccc(F)cc3)c2)c1O [1-466, sodium (S)-3-(3-(1,5-dimethyl-4-oxido-2-oxo-1,2-dihydropyridin-3-yl)ureido)-3-(4′-fluorobiphenyl-3-yl)propanoate]"
4,> 6.70,"Cc1cn(C)c(=O)c(NC(=O)N[C@@H](CC(=O)O)c2cccc(-c3ccccc3OC(F)(F)F)c2)c1O [1-467, sodium (S)-3-(3-(1,5-dimethyl-4-oxido-2-oxo-1,2-dihydropyridin-3-yl)ureido)-3-(2′-(trifluoromethoxy)biphenyl-3-yl)propanoate]"
5,> 6.70,"COc1ccc(-c2cccc([C@H](CC(=O)O)NC(=O)Nc3c(O)c(C)cn(C)c3=O)c2)c(OC)c1 [1-468, sodium (S)-3-(2′,4′-dimethoxybiphenyl-3-yl)-3-(3-(1,5-dimethyl-4-oxido-2-oxo-1,2-dihydropyridin-3-yl)ureido)propanoate]"
6,> 7.70,"COc1ccc(-c2cccc([C@H](CC(=O)O)NC(=O)Nc3c(O)c(C)cn(C)c3=O)c2)cc1OC [1-469, sodium (S)-3-(3′,4′-dimethoxybiphenyl-3-yl)-3-(3-(1,5-dimethyl-4-oxido-2-oxo-1,2-dihydropyridin-3-yl)ureido)propanoate]"
7,> 6.70,"Cc1cn(C)c(=O)c(NC(=O)NC(CC(=O)O)c2cccc(-c3ccc(Cl)cc3)c2)c1O (stereo not drawn) [1-471, sodium 3-(4′-chlorobiphenyl-3-yl)-3-(3-(1,5-dimethyl-4-oxido-2-oxo-1,2-dihydropyridin-3-yl)ureido)propanoate]"
8,> 6.70,"Cc1cn(C)c(=O)c(NC(=O)NC(CC(=O)O)c2cccc(-c3cccc(Cl)c3)c2)c1O (stereo not drawn) [1-472, sodium 3-(3′-chlorobiphenyl-3-yl)-3-(3-(1,5-dimethyl-4-oxido-2-oxo-1,2-dihydropyridin-3-yl)ureido)propanoate]"
9,> 7.70,"Cc1cn(C)c(=O)c(NC(=O)NC(CC(=O)O)c2cccc(-c3ccccc3Cl)c2)c1O (stereo not drawn) [1-473, sodium 3-(2′-chlorobiphenyl-3-yl)-3-(3-(1,5-dimethyl-4-oxido-2-oxo-1,2-dihydropyridin-3-yl)ureido)propanoate]"
10,> 6.70,"Cc1cn(C)c(=O)c(NC(=O)N[C@@H](CC(=O)O)c2cccc(-c3ccccc3C(F)(F)F)c2)c1O [1-474, sodium (S)-3-(3-(1,5-dimethyl-4-oxido-2-oxo-1,2-dihydropyridin-3-yl)ureido)-3-(2′-(trifluoromethyl)biphenyl-3-yl)propanoate]"
11,> 6.70,"COc1cc([C@H](CC(=O)O)NC(=O)Nc2c(O)c(C)cn(C)c2=O)cc(-c2ccccc2)c1OC [1-475, sodium (S)-3-(5,6-dimethoxybiphenyl-3-yl)-3-(3-(1,5-dimethyl-4-oxido-2-oxo-1,2-dihydropyridin-3-yl)ureido)propanoate]"
12,> 7.70,"COc1ccc(-c2cccc([C@H](CC(=O)O)NC(=O)Nc3c(O)c(C)cn(C)c3=O)c2)cn1 [1-476, sodium (S)-3-(3-(1,5-dimethyl-4-oxido-2-oxo-1,2-dihydropyridin-3-yl)ureido)-3-(3-(6-methoxypyridin-3-yl)phenyl)propanoate]"
13,> 6.70,"COc1ccc(OC)c(-c2cccc([C@H](CC(=O)O)NC(=O)Nc3c(O)c(C)cn(C)c3=O)c2)c1 [1-477, sodium (S)-3-(2′,5′-dimethoxybiphenyl-3-yl)-3-(3-(1,5-dimethyl-4-oxido-2-oxo-1,2-dihydropyridin-3-yl)ureido)propanoate]"
14,> 6.70,"Cc1cn(C)c(=O)c(NC(=O)NC(CC(=O)O)c2cccc(-c3cncnc3)c2)c1O (stereo not drawn) [1-478, sodium 3-(3-(1,5-dimethyl-4-oxido-2-oxo-1,2-dihydropyridin-3-yl)ureido)-3-(3-(pyrimidin-5-yl)phenyl)propanoate]"
15,> 6.70,"COc1cccc(OC)c1-c1cccc([C@H](CC(=O)O)NC(=O)Nc2c(O)c(C)cn(C)c2=O)c1 [1-479, sodium (S)-3-(2′,6′-dimethoxybiphenyl-3-yl)-3-(3-(1,5-dimethyl-4-oxido-2-oxo-1,2-dihydropyridin-3-yl)ureido)propanoate]"
16,> 6.70,"CCn1cc(C)c(O)c(NC(=O)NC(CC(=O)O)c2cccc(-c3ccc(Cl)c(Cl)c3)c2)c1=O (stereo not drawn) [1-480, sodium 3-(3′,4′-dichlorobiphenyl-3-yl)-3-(3-(1-ethyl-5-methyl-4-oxido-2-oxo-1,2-dihydropyridin-3-yl)ureido)propanoate]"
17,> 6.70,"Cc1cn(C)c(=O)c(NC(=O)NC(CC(=O)O)c2cccc(-c3ccc(Cl)c(Cl)c3)c2)c1O (stereo not drawn) [1-481, sodium 3-(3′,4′-dichlorobiphenyl-3-yl)-3-(3-(1,5-dimethyl-4-oxido-2-oxo-1,2-dihydropyridin-3-yl)ureido)propanoate]"

row,pIC50,Structure (SMILES)
1,> 6.70,"Cc1cn(C)c(=O)c(NC(=O)N[C@@H](CC(=O)O)c2ccc(-c3ccccc3)o2)c1O [1-482, sodium (S)-3-(3-(1,5-dimethyl-4-oxido-2-oxo-1,2-dihydropyridin-3-yl)ureido)-3-(5-phenylfuran-2-yl)propanoate]"
2,> 7.70,"Cc1cn(C)c(=O)c(NC(=O)N[C@@H](CC(=O)O)c2cccc(-n3c(C)ccc3C)c2)c1O [1-483, sodium (S)-3-(3-(2,5-dimethyl-1H-pyrrol-1-yl)phenyl)-3-(3-(1,5-dimethyl-4-oxido-2-oxo-1,2-dihydropyridin-3-yl)ureido)propanoate]"
3,> 6.70,"Cc1cn(C)c(=O)c(NC(=O)NC(CC(=O)O)c2cccc(-c3ccc(F)c(Cl)c3)c2)c1O (stereo not drawn) [1-484, sodium 3-(3′-chloro-4′-fluorobiphenyl-3-yl)-3-(3-(1,5-dimethyl-4-oxido-2-oxo-1,2-dihydropyridin-3-yl)ureido)propanoate]"
4,> 6.70,"Cc1cn(C)c(=O)c(NC(=O)NC(CC(=O)O)c2cccc(-c3cccc(Cl)c3Cl)c2)c1O (stereo not drawn) [1-485, sodium 3-(2′,3′-dichlorobiphenyl-3-yl)-3-(3-(1,5-dimethyl-4-oxido-2-oxo-1,2-dihydropyridin-3-yl)ureido)propanoate]"
5,> 6.70,"Cc1cn(C)c(=O)c(NC(=O)NC(CC(=O)O)c2cccc(-c3cc(Cl)cc(Cl)c3)c2)c1O (stereo not drawn) [1-486, sodium 3-(3′,5′-dichlorobiphenyl-3-yl)-3-(3-(1,5-dimethyl-4-oxido-2-oxo-1,2-dihydropyridin-3-yl)ureido)propanoate]"
6,> 6.70,"COc1cccc(-c2cccc([C@H](CC(=O)O)NC(=O)Nc3c(O)c(C)cn(C)c3=O)c2)c1C [1-489, sodium (S)-3-(3-(1,5-dimethyl-4-oxido-2-oxo-1,2-dihydropyridin-3-yl)ureido)-3-(3′-methoxy-2′-methylbiphenyl-3-yl)propanoate]"
7,> 6.70,"COc1ccc(C)c(-c2cccc([C@H](CC(=O)O)NC(=O)Nc3c(O)c(C)cn(C)c3=O)c2)c1 [1-490, sodium (S)-3-(3-(1,5-dimethyl-4-oxido-2-oxo-1,2-dihydropyridin-3-yl)ureido)-3-(5′-methoxy-2′-methylbiphenyl-3-yl)propanoate]"
8,> 6.70,"Cc1cn(C)c(=O)c(NC(=O)NC(CC(=O)O)c2ccc(OCC(F)(F)F)c(-c3ccccc3)c2)c1O (stereo not drawn) [1-491, sodium 3-(3-(1,5-dimethyl-4-oxido-2-oxo-1,2-dihydropyridin-3-yl)ureido)-3-(6-(2,2,2-trifluoroethoxy)biphenyl-3-yl)propanoate]"
9,> 7.70,"CCc1ccccc1-c1cccc([C@H](CC(=O)O)NC(=O)Nc2c(O)c(C)cn(C)c2=O)c1 [1-492, sodium (S)-3-(3-(1,5-dimethyl-4-oxido-2-oxo-1,2-dihydropyridin-3-yl)ureido)-3-(2′-ethylbiphenyl-3-yl)propanoate]"
10,> 6.70,"Cc1cn(C)c(=O)c(NC(=O)N[C@@H](CC(=O)O)c2cc(-c3ccccc3)ccc2F)c1O [1-493, sodium (S)-3-(3-(1,5-dimethyl-4-oxido-2-oxo-1,2-dihydropyridin-3-yl)ureido)-3-(4-fluorobiphenyl-3-yl)propanoate]"
11,> 7.70,"O=C(O)C[C@H](NC(=O)Nc1c(O)cc[nH]c1=O)c1cccc(-c2ccc(F)cc2F)c1 [1-494, sodium (S)-3-(2′,4′-difluorobiphenyl-3-yl)-3-(3-(4-oxido-2-oxo-1,2-dihydropyridin-3-yl)ureido)propanoate]"
12,> 6.70,"Cc1ccc(-c2cccc([C@H](CC(=O)O)NC(=O)Nc3c(O)c(C)cn(C)c3=O)c2)cc1C [1-495, sodium (S)-3-(3-(1,5-dimethyl-4-oxido-2-oxo-1,2-dihydropyridin-3-yl)ureido)-3-(3′,4′-dimethylbiphenyl-3-yl)propanoate]"
13,> 6.70,"Cc1cn(C)c(=O)c(NC(=O)N[C@@H](CC(=O)O)c2cccc(-c3cccc(F)c3F)c2)c1O [1-496, sodium (S)-3-(2′,3′-difluorobiphenyl-3-yl)-3-(3-(1,5-dimethyl-4-oxido-2-oxo-1,2-dihydropyridin-3-yl)ureido)propanoate]"
14,> 6.70,"Cc1cc(-c2cccc([C@H](CC(=O)O)NC(=O)Nc3c(O)c(C)cn(C)c3=O)c2)ccc1F [1-497, sodium (S)-3-(3-(1,5-dimethyl-4-oxido-2-oxo-1,2-dihydropyridin-3-yl)ureido)-3-(4′-fluoro-3′-methylbiphenyl-3-yl)propanoate]"
15,< 6.70,"Cc1cn(C)c(=O)c(NC(=O)N[C@@H](CC(=O)O)c2cccn2-c2ccccc2)c1O [1-498, sodium (S)-3-(3-(1,5-dimethyl-4-oxido-2-oxo-1,2-dihydropyridin-3-yl)ureido)-3-(1-phenyl-1H-pyrrol-2-yl)propanoate]"
16,> 7.70,"Cc1cn(C)c(=O)c(NC(=O)N[C@@H](CC(=O)O)c2cccc(-c3cccc(Cl)c3)c2)c1O [1-499, sodium (S)-3-(3′-chlorobiphenyl-3-yl)-3-(3-(1,5-dimethyl-4-oxido-2-oxo-1,2-dihydropyridin-3-yl)ureido)propanoate]"
